Laboratory results published in PubChem BioAssay AID274 (DTP/NCI, 2004).
“And” between values parts separate entries of the source, which are not always exact repeats. Identical values can stand only once. Toxic doses and inconclusive results are not listed.

Test system: BDF1 mice, Lewis lung carcinoma iv, survival T/C
Test: NCI In Vivo Anticancer Drug Screen. Data for tumor model Lewis Lung Carcinoma (intravenous) in B6D2F1 (BDF1) mice
Conditions: endpoint: median survival time, higher = longer survival
Protocol: The antitumor activity of compounds was measured in mice bearing transplantable tumors. Survival or tumor size were measured and the results are expressed as the measurement made in the treated group (T) divided by the measurement made in the vehicle treated control group (C). The tumor model used in this assay is Lewis Lung Carcinoma (intravenous) in B6D2F1 (BDF1) mice

[1] = dose: 25.0 mg/kg/injection, schedule: Q01DX009 (ip), vehicle: saline with Tween-80
[2] = dose: 50.0 mg/kg/injection, schedule: Q01DX009 (ip), vehicle: saline with Tween-80
[3] = dose: 100.0 mg/kg/injection, schedule: Q01DX009 (ip), vehicle: saline with Tween-80
[4] = dose: 200.0 mg/kg/injection, schedule: Q01DX009 (ip), vehicle: saline with Tween-80
[5] = dose: 12.5 mg/kg/injection, schedule: Q01DX009 (ip), vehicle: saline with Tween-80
[6] = dose: 0.5 mg/kg/injection, schedule: Q01DX009 (ip), vehicle: Klucel (hydroxypropylcellulose) (HPC)
[7] = dose: 1.0 mg/kg/injection, schedule: Q01DX009 (ip), vehicle: Klucel (hydroxypropylcellulose) (HPC)
[8] = dose: 32.0 mg/kg/injection, schedule: Q01DX009 (ip), vehicle: Klucel (hydroxypropylcellulose) (HPC)
[9] = dose: 64.0 mg/kg/injection, schedule: Q01DX009 (ip), vehicle: Klucel (hydroxypropylcellulose) (HPC)

With `Cc1c(N)nc([C@H](CC(N)=O)NC[C@H](N)C(N)=O)nc1C(=O)N[C@H](C(=O)N[C@H](C)[C@@H](O)[C@H](C)C(=O)N[C@H](C(=O)NCCc1nc(-c2nc(C(=O)NCCC[S+](C)C)cs2)cs1)[C@@H](C)O)C(OC1OC(CO)C(O)C(O)C1OC1OC(CO)C(O)C(OC(N)=O)C1O)c1cnc[nH]1` (some centres not stated) the T/C (dose: 2.0 mg/kg/injection, schedule: Q01DX009 (ip), vehicle: saline) was 113 % of control, the T/C (dose: 4.0 mg/kg/injection, schedule: Q01DX009 (ip), vehicle: saline) was 115 % of control and the T/C (dose: 12.0 mg/kg/injection, schedule: Q04DX003 (ip), vehicle: saline) was 105 % of control and 115 % of control. The T/C (dose: 18.0 mg/kg/injection, schedule: Q04DX003 (ip), vehicle: saline) was 115 % of control (2×) and 116 % of control, the T/C (dose: 27.0 mg/kg/injection, schedule: Q04DX003 (ip), vehicle: saline) was 109 % of control and the T/C (dose: 40.0 mg/kg/injection, schedule: Q04DX003 (ip), vehicle: saline) was 113 % of control. For the same compound, the T/C (dose: 60.0 mg/kg/injection, schedule: Q04DX003 (ip), vehicle: saline) was 115 % of control.

`CC1OC(=O)C(C(C)C)NC(=O)C(C(C)C)OC(=O)C(C(C)C)NC(=O)C(C)OC(=O)C(C(C)C)NC(=O)C(C(C)C)OC(=O)C(C(C)C)NC(=O)C(C)OC(=O)C(C(C)C)NC(=O)C(C(C)C)OC(=O)C(C(C)C)NC1=O` (configuration not stated) was tested, and the T/C (dose: 1.25 mg/kg/injection, schedule: Q01DX009 (ip), vehicle: saline with Tween-80) was 94 % of control, the T/C (dose: 2.5 mg/kg/injection, schedule: Q01DX009 (ip), vehicle: saline with Tween-80) was 102 % of control and the T/C (dose: 5.0 mg/kg/injection, schedule: Q01DX009 (ip), vehicle: saline with Tween-80) was 98 % of control. For the same compound, the T/C (dose: 10.0 mg/kg/injection, schedule: Q01DX009 (ip), vehicle: saline with Tween-80) was 102 % of control, the T/C (dose: 20.0 mg/kg/injection, schedule: Q01DX009 (ip), vehicle: saline with Tween-80) was 89 % of control and the T/C (dose: 40.0 mg/kg/injection, schedule: Q01DX009 (ip), vehicle: saline with Tween-80) was 89 % of control.

For `CNc1cccnc1/C=N/NC(N)=S`, the T/C (dose: 12.0 mg/kg/injection, schedule: Q01DX009 (ip), vehicle: saline with Tween-80) was 100 % of control, the T/C [1] was 103 % of control and the T/C [2] was 102 % of control. For the same compound, the T/C [3] was 115 % of control.

`CN1N=C(N)c2cn(C3OC(COP(=O)(O)O)C(O)C3O)c3ncnc1c23` (configuration not stated) was tested, and the T/C (dose: 0.39 mg/kg/injection, schedule: Q01DX009 (ip), vehicle: water) was 100 % of control, the T/C (dose: 0.78 mg/kg/injection, schedule: Q01DX009 (ip), vehicle: water) was 92 % of control and the T/C (dose: 1.56 mg/kg/injection, schedule: Q01DX009 (ip), vehicle: water) was 86 % of control. For the same compound, the T/C (dose: 3.12 mg/kg/injection, schedule: Q01DX009 (ip), vehicle: water) was 93 % of control, the T/C (dose: 6.25 mg/kg/injection, schedule: Q01DX009 (ip), vehicle: water) was 99 % of control and the T/C (dose: 12.5 mg/kg/injection, schedule: Q01DX009 (ip), vehicle: water) was 99 % of control.

In the case of `O=S(=O)(O)O.[W]`, the T/C (dose: 0.38 mg/kg/injection, schedule: Q01DX009 (ip), vehicle: saline) is reported as 102 % of control, the T/C (dose: 0.75 mg/kg/injection, schedule: Q01DX009 (ip), vehicle: saline) is reported as 118 % of control and the T/C (dose: 1.5 mg/kg/injection, schedule: Q01DX009 (ip), vehicle: saline) is reported as 98 % of control. For the same compound, the T/C (dose: 3.0 mg/kg/injection, schedule: Q01DX009 (ip), vehicle: saline) was 119 % of control.

In the case of `CN(C)c1nc(N(C)C)nc(N(C)C)n1`, the T/C [2] is reported as 99 % of control, the T/C (dose: 59.0 mg/kg/injection, schedule: Q04DX003 (ip), vehicle: saline) is reported as 102 % of control and the T/C (dose: 88.0 mg/kg/injection, schedule: Q04DX003 (ip), vehicle: saline) is reported as 97 % of control. The T/C [3] was 154 % of control, the T/C (dose: 133.0 mg/kg/injection, schedule: Q04DX003 (ip), vehicle: Klucel (hydroxypropylcellulose) (HPC)) was 90 % of control and the T/C (dose: 133.0 mg/kg/injection, schedule: Q04DX003 (ip), vehicle: saline) was 101 % of control and 109 % of control. For the same compound, the T/C [4] was 92 % of control, the T/C (dose: 200.0 mg/kg/injection, schedule: Q04DX003 (ip), vehicle: Klucel (hydroxypropylcellulose) (HPC)) was 114 % of control and the T/C (dose: 200.0 mg/kg/injection, schedule: Q04DX003 (ip), vehicle: saline) was 96 % of control and 105 % of control. The T/C (dose: 300.0 mg/kg/injection, schedule: Q04DX003 (ip), vehicle: saline) was 95 % of control and 105 % of control, the T/C (dose: 450.0 mg/kg/injection, schedule: Q04DX003 (ip), vehicle: saline) was 104 % of control and the T/C (dose: 675.0 mg/kg/injection, schedule: Q04DX003 (ip), vehicle: saline) was 105 % of control.

In the case of `CCCCCCCCCCCCCCCCCCCCCC(=O)Nc1ccn(C2OC(CO)C(O)C2O)c(=O)n1` (configuration not stated), the T/C [1] is reported as 94 % of control, the T/C [2] is reported as 124 % of control and the T/C [3] is reported as 113 % of control. The T/C [4] was 120 % of control.

With `O=[N+]([O-])c1cc([N+](=O)[O-])c(Nn2c3ccccc3c3ccccc32)c([N+](=O)[O-])c1` the T/C [5] was 114 % of control, the T/C [1] was 105 % of control and the T/C [2] was 91 % of control.

In the case of `O=C1N(Cl)C(=O)C(c2ccc(Cl)cc2)(c2ccc(Cl)cc2)N1Cl`, the T/C [5] is reported as 101 % of control, the T/C [1] is reported as 96 % of control and the T/C [2] is reported as 103 % of control. For the same compound, the T/C [3] was 101 % of control, the T/C [4] was 103 % of control and the T/C (dose: 400.0 mg/kg/injection, schedule: Q01DX009 (ip), vehicle: saline with Tween-80) was 113 % of control.

With `CC1=C(/C=C/C(C)=C/C=C/C(C)=C/C=O)C(C)(C)CCC1` the T/C (dose: 4.0 mg/kg/injection, schedule: Q01DX005 (ip), vehicle: saline with Tween-80) was 96 % of control, the T/C (dose: 8.0 mg/kg/injection, schedule: Q01DX005 (ip), vehicle: saline with Tween-80) was 96 % of control and 109 % of control and the T/C (dose: 16.0 mg/kg/injection, schedule: Q01DX005 (ip), vehicle: saline with Tween-80) was 95 % of control and 116 % of control. For the same compound, the T/C (dose: 32.0 mg/kg/injection, schedule: Q01DX005 (ip), vehicle: saline with Tween-80) was 108 % of control and the T/C (dose: 64.0 mg/kg/injection, schedule: Q01DX005 (ip), vehicle: saline with Tween-80) was 95 % of control and 96 % of control.

In the case of `C[C@@]12C(=O)OC(=O)[C@]1(C)[C@H]1CC[C@@H]2O1`, the T/C (dose: 0.06 mg/kg/injection, schedule: Q01DX009 (ip), vehicle: Klucel (hydroxypropylcellulose) (HPC)) is reported as 104 % of control, the T/C (dose: 0.12 mg/kg/injection, schedule: Q01DX009 (ip), vehicle: Klucel (hydroxypropylcellulose) (HPC)) is reported as 108 % of control and the T/C (dose: 0.25 mg/kg/injection, schedule: Q01DX009 (ip), vehicle: Klucel (hydroxypropylcellulose) (HPC)) is reported as 95 % of control. For the same compound, the T/C [6] was 108 % of control and the T/C [7] was 97 % of control.

In the case of `NC(Cc1ccc(N(CCCl)CCCl)cc1)C(=O)O` (configuration not stated), the T/C [6] is reported as 94 % of control, the T/C [7] is reported as 97 % of control and the T/C (dose: 2.0 mg/kg/injection, schedule: Q01DX009 (ip), vehicle: Klucel (hydroxypropylcellulose) (HPC)) is reported as 122 % of control.

With `C=CCNc1ccc(C)cc1` the T/C (dose: 100.0 mg/kg/injection, schedule: Q01DX009 (ip), vehicle: Klucel (hydroxypropylcellulose) (HPC)) was 86 % of control.

In the case of `CCC(C(=O)O)C(=O)O.[NH-]CC1CCCC[N-]1.[Pt+2]`, the T/C (dose: 25.0 mg/kg/injection, schedule: Q01DX009 (ip), vehicle: saline) is reported as 98 % of control and 100 % of control and the T/C (dose: 50.0 mg/kg/injection, schedule: Q01DX009 (ip), vehicle: saline) is reported as 100 % of control.

In the case of `Nc1ncnc2c1ncn2C1OC(CO)C(O)C1O` (configuration not stated), the T/C [8] is reported as 101 % of control, the T/C [9] is reported as 108 % of control and the T/C (dose: 128.0 mg/kg/injection, schedule: Q01DX009 (ip), vehicle: Klucel (hydroxypropylcellulose) (HPC)) is reported as 97 % of control. The T/C (dose: 256.0 mg/kg/injection, schedule: Q01DX009 (ip), vehicle: Klucel (hydroxypropylcellulose) (HPC)) was 106 % of control and the T/C (dose: 512.0 mg/kg/injection, schedule: Q01DX009 (ip), vehicle: Klucel (hydroxypropylcellulose) (HPC)) was 87 % of control.

In the case of `O=P1(N(CCCl)CCCl)NCCCO1` (configuration not stated), the T/C (dose: 39.0 mg/kg/injection, schedule: Q01DX001 (ip), vehicle: saline) is reported as 119 % of control, the T/C (dose: 50.0 mg/kg/injection, schedule: Q01DX001 (ip), vehicle: saline) is reported as 155 % of control and the T/C (dose: 78.0 mg/kg/injection, schedule: Q01DX001 (ip), vehicle: saline) is reported as 174 % of control. The T/C (dose: 133.0 mg/kg/injection, schedule: Q10DX002 (ip), vehicle: saline) was 168 % of control and the T/C (dose: 200.0 mg/kg/injection, schedule: Q10DX002 (ip), vehicle: saline) was 155 % of control.

With `CC(C)NCC(O)COc1cccc2ccccc12` (configuration not stated) the T/C (dose: 8.0 mg/kg/injection, schedule: Q01DX009 (ip), vehicle: Klucel (hydroxypropylcellulose) (HPC)) was 90 % of control, the T/C (dose: 16.0 mg/kg/injection, schedule: Q01DX009 (ip), vehicle: Klucel (hydroxypropylcellulose) (HPC)) was 96 % of control and the T/C [8] was 92 % of control. The T/C [9] was 100 % of control.
